Patent publication US20240116945A1, “EXATECAN-DERIVED TOPOISOMERASE-1 INHIBITORS PHARMACEUTICAL COMPOSITIONS, AND USES THEREOF” (Merck Sharp & Dohme LLC, priority 2022, published 2024)
Structures can show the parent of a compound that is named as a salt.

What follows are compounds tested on Jeko-1 cells (assay: CellTiter-Glo 2.0 Cytotoxicity Assay). Settings: Homo sapiens, JeKo-1, read-out: Jeko-1 EC50 (nM), Jeko-1 cells, 3000 cells/well; compounds added Day 1; CellTiter-Glo 2.0 luminescence read on Day 4 or 5.
Type: cell-based
Description: Reaction progress and synthetic intermediate analysis were assessed by LCMS (UV detection with ESI, APCI, or other mass detection) when applicable using a MeCN/water gradient with either TFA, formic acid, or NH4HCO3 modifier. Silica gel and reverse-phase flash column chromatography were conducted with commercially available pre-packed columns. Reverse-phase preparative HPLC purification was performed on preparative HPLC instruments with UV and MS detection using a MeCN/water gradient with either TFA, formic acid, or NH4OH modifier. ^1H NMR spectra were collected at room temperature, and chemical shifts are reported in ppm relative to the residual proteo-solvent signals, and multiplicities, coupling constants (where applicable), and signal integrations are listed parenthetically. Unless otherwise noted, all EC50 data presented in tables refers to the CellTiter-Glo® 2.0 Cytotoxicity Assay that is described in the Biological Assay section.
CellTiter-Glo® 2.0 Cytotoxicity Assay
Step 1: Seed 384-Well Plates for Assay (45 μL Per Well) on Day 0
Jeko-1 cells were quickly thawed in a cryo-vial by incubating them in a 37° C. water bath for <1 min until there is just a small bit of ice left in the vial. The vial was promptly removed and wiped down with 70% ethanol. The cells were transferred from the vial to a sterile centrifuge tube containing 8 mL of pre-warmed cell culture medium. The vial was flushed with an additional 1 mL of medium to ensure complete transfer of cells to the centrifuge tube. The cells were then centrifuged at 150×g for 5 minutes. The supernatant was aspirated, and the cell pellet was resuspended in 10-20 mL cell culture medium. Cells were counted using Vi-cell and prepared 6.6×10^4 cells/ml, 3000 cells/45 μL per well. Then added 45 μL/well of cells into Corning® 384-well Low Flange White Flat Bottom Polystyrene TC-treated Microplates (Corning, Cat #3570) using Standard Cassette Combi (if needed, dispense 1 dummy plate at 20 μL to help normalize Combi, using medium speed). The plates were spun down at 150×g for 30 seconds.
Step 2: Add Compounds on Day 1
The compound plates and reference compound stock were taken out and allowed to thaw at RT. The tubes were centrifuged at 2000×g for 30 seconds. The 10× Intermediate assay plates (Greiner plate, Cat #781280) were prepared using an Echo liquid handler. Proper buffer (HBSS (Gibco, Cat #14025-092)+10 mM HEPES (Gibco, Cat #15630-080)+0.1% BSA (Sigma, Cat #A9576)) were used to make serial dilutions. Media (no cells) was used for Max_E. Compound (5 μL of 10×) was transferred from intermediate plate to assay plate using a Bravo liquid handler using a very slow speed so the cell monolayer wasn't disturbed. The plates were spun down at 150×g for 30 seconds.
Step 3: CellTiter-Glo 2.0 Assay (Promega, Cat #G9242) on Day 4 or 5 (CellTiter-Glo Kit Stored at −70° C.)
The CellTiter-Glo® 2.0 Reagent was thawed at 4° C. overnight, taking care not to expose the reagent to temperatures above 25° C.). The kit was equilibrated to RT for approximately 30 minutes. CellTiter-Glo® 2.0 Reagent (20 μl) was added to 50 μl of medium containing cells using Standard Cassette Combi. The contents were mixed for 2-3 minutes on an orbital shaker to induce cell lysis. The plates were spun down at 150×g for 30 seconds. The plates were allowed to incubate at RT for 5 minutes to stabilize the luminescent signal.
Illustrative compounds of the present disclosure were tested in the above assay in Example 15, and results are provided in the Table 9 below: […]

In order of falling EC50:
1. CC[C@@]1(O)C(=O)OCc2c1cc1n(c2=O)Cc2c-1nc1cc(F)c(C)c3c1c2[C@@H](NC(=O)[C@@H](N)CN)CC3 [Compound 50, (S)-2,3-diamino-N-((1S,9S)-9-ethyl-5-fluoro-9-hydroxy-4-methyl-10,13-dioxo-2,3,9,10,13,15-hexahydro-1H,12H-benzo[de]pyrano[3′,4′: 6,7]indolizino[1,2-b]quinolin-1-yl)propanamide formate]  90 nM
2. CC[C@@]1(O)C(=O)OCc2c1cc1n(c2=O)Cc2c-1nc1cc(F)c(C)c3c1c2[C@@H](NC(=O)[C@@H](O)CN)CC3 [Compound 44]  78 nM
3. CC[C@@]1(O)C(=O)OCc2c1cc1n(c2=O)Cc2c-1nc1cc(F)c(C)c3c1c2[C@@H](NC(=O)[C@H](O)CN)CC3 [Compound 43]  27 nM
4. CC[C@@]1(O)C(=O)OCc2c1cc1n(c2=O)Cc2c-1nc1cc(F)c(C)c3c1c2[C@@H](NC(=O)[C@@H](N)CO)CC3 [Compound 45, (S)-2-amino-N-((1S,9S)-9-ethyl-5-fluoro-9-hydroxy-4-methyl-10,13-dioxo-2,3,9,10,13,15-hexahydro-1H,12H-benzo[de]pyrano[3′,4′: 6,7]indolizino[1,2-b]quinolin-1-yl)-3-hydroxypropanamide formate]  27 nM
5. CC[C@@]1(O)C(=O)OCc2c1cc1n(c2=O)Cc2c-1nc1cc(F)c(C)c3c1c2[C@@H](NC(=O)C(C)(NC(=O)[C@@H](C)N)C(F)F)CC3 (stereo partly drawn) [Compound 47]  22 nM
6. CC[C@@]1(O)C(=O)OCc2c1cc1n(c2=O)Cc2c-1nc1cc(F)c(C)c3c1c2[C@@H](NC(=O)C(F)(F)CCN)CC3 [Compound 49, 4-amino-N-((1S,9S)-9-ethyl-5-fluoro-9-hydroxy-4-methyl-10,13-dioxo-2,3,9,10,13,15-hexahydro-1H,12H-benzo[de]pyrano[3′,4′: 6,7]indolizino[1,2-b]quinolin-1-yl)-2,2-difluorobutanamide]  14 nM
7. CC[C@@]1(O)C(=O)OCc2c1cc1n(c2=O)Cc2c-1nc1cc(F)c(C)c3c1c2[C@@H](N(C)CC(F)F)CC3 [Compound 60, (1S,9S)-1-((2,2-difluoroethyl)(methyl)amino)-9-ethyl-5-fluoro-9-hydroxy-4-methyl-1,2,3,9,12,15-hexahydro-10H,13H-benzo[de]pyrano[3′,4′: 6,7]indolizino[1,2-b]quinoline-10,13-dione]  9.6 nM
8. CC[C@@]1(O)C(=O)OCc2c1cc1n(c2=O)Cc2c-1nc1cc(F)c(C)c3c1c2[C@@H](NCC(=O)NC(C)C)CC3 [Compound 55]  8.8 nM
9. CC[C@@]1(O)C(=O)OCc2c1cc1n(c2=O)Cc2c-1nc1cc(F)c(C)c3c1c2[C@@H](NC(=O)C(C)(N)COC)CC3 (stereo partly drawn) [Compound 48]  8.7 nM
10. CC[C@@]1(O)C(=O)OCc2c1cc1n(c2=O)Cc2c-1nc1cc(F)c(C)c3c1c2[C@@H](NCC(C)(F)F)CC3 [Compound 57]  6.2 nM
11. CC[C@@]1(O)C(=O)OCc2c1cc1n(c2=O)Cc2c-1nc1cc(F)c(C)c3c1c2[C@@H](NCC(F)(F)C(F)F)CC3 [Compound 58]  6.2 nM
12. CC[C@@]1(O)C(=O)OCc2c1cc1n(c2=O)Cc2c-1nc1cc(F)c(C)c3c1c2[C@@H](NC(=O)C(N)CC(C)C)CC3 (stereo partly drawn) [Compound 42]  5.5 nM
13. CC[C@@]1(O)C(=O)OCc2c1cc1n(c2=O)Cc2c-1nc1cc(F)c(C)c3c1c2[C@@H](NCc1ccccc1CO)CC3 [Compound 56]  5.5 nM
14. CC[C@@]1(O)C(=O)OCc2c1cc1n(c2=O)Cc2c-1nc1cc(F)c(C)c3c1c2[C@@H](NC(C)C(F)F)CC3 (stereo partly drawn) [Compound 59]  5.4 nM
15. CC[C@@]1(O)C(=O)OCc2c1cc1n(c2=O)Cc2c-1nc1cc(F)c(C)c3c1c2[C@@H](NCCCO)CC3 [Compound 52]  5.1 nM
16. CC[C@@]1(O)C(=O)OCc2c1cc1n(c2=O)Cc2c-1nc1cc(F)c(C)c3c1c2[C@@H](NC(=O)[C@H](N)CO)CC3 [Compound 46]  5 nM
17. CC[C@@]1(O)C(=O)OCc2c1cc1n(c2=O)Cc2c-1nc1cc(F)c(C)c3c1c2[C@@H](NC(=O)C(C)(C)CCO)CC3 [Compound 38, N-((1S,9S)-9-ethyl-5-fluoro-9-hydroxy-4-methyl-10,13-dioxo-2,3,9,10,13,15-hexahydro-1H,12H-benzo[de]pyrano[3′,4′: 6,7]indolizino[1,2-b]quinolin-1-yl)-4-hydroxy-2,2-dimethylbutanamide]  4.6 nM
18. CC[C@@]1(O)C(=O)OCc2c1cc1n(c2=O)Cc2c-1nc1cc(F)c(C)c3c1c2[C@@H](NC(=O)[C@@H](CCO)OC)CC3 [Compound 31, (R)—N-((1S,9S)-9-ethyl-5-fluoro-9-hydroxy-4-methyl-10,13-dioxo-2,3,9,10,13,15-hexahydro-1H,12H-benzo[de]pyrano[3′,4′: 6,7]indolizino[1,2-b]quinolin-1-yl)-4-hydroxy-2-methoxybutanamide]  4.1 nM
19. CC[C@@]1(O)C(=O)OCc2c1cc1n(c2=O)Cc2c-1nc1cc(F)c(C)c3c1c2[C@@H](NC(=O)[C@H](C)CO)CC3 [Compound 33]  3.8 nM
20. CC[C@@]1(O)C(=O)OCc2c1cc1n(c2=O)Cc2c-1nc1cc(F)c(C)c3c1c2[C@@H](NC(=O)[C@H](O)CO)CC3 [Compound 29]  3.7 nM
21. CC[C@@]1(O)C(=O)OCc2c1cc1n(c2=O)Cc2c-1nc1cc(F)c(C)c3c1c2[C@@H](NC(=O)C(O)C1(CO)CC1)CC3 (stereo partly drawn) [Compound 30, N-((1S,9S)-9-ethyl-5-fluoro-9-hydroxy-4-methyl-10,13-dioxo-2,3,9,10,13,15-hexahydro-1H,12H-benzo[de]pyrano[3′,4′: 6,7]indolizino[1,2-b]quinolin-1-yl)-2-hydroxy-2-(1-(hydroxymethyl)cyclopropyl)acetamide]  2.5 nM
22. CC[C@@]1(O)C(=O)OCc2c1cc1n(c2=O)Cc2c-1nc1cc(F)c(C)c3c1c2[C@@H](NC(=O)C(C)(C)N)CC3 [Compound 41, 2-amino-N-((1S,9S)-9-ethyl-5-fluoro-9-hydroxy-4-methyl-10,13-dioxo-2,3,9,10,13,15-hexahydro-1H,12H-benzo[de]pyrano[3′,4′: 6,7]indolizino[1,2-b]quinolin-1-yl)-2-methylpropanamide formate]  2.3 nM
23. CC[C@@]1(O)C(=O)OCc2c1cc1n(c2=O)Cc2c-1nc1cc(F)c(C)c3c1c2[C@@H](NC(=O)[C@@H](C)CO)CC3 [Compound 32, (S)—N-((1S,9S)-9-ethyl-5-fluoro-9-hydroxy-4-methyl-10,13-dioxo-2,3,9,10,13,15-hexahydro-1H,12H-benzo[de]pyrano[3′,4′: 6,7]indolizino[1,2-b]quinolin-1-yl)-3-hydroxy-2-methylpropanamide]  1.4 nM

Same assay, conditions: Homo sapiens; Jeko-1 cells, 3000 cells/well; compounds added Day 1; CellTiter-Glo 2.0 luminescence read on Day 4 or 5; read-out: Jeko-1 EC50

`CC[C@@]1(O)C(=O)OCc2c1cc1n(c2=O)Cc2c-1nc1cc(F)c(C)c3c1c2[C@@H](NCCO)CC3` [Compound 51, (1S,9S)-9-ethyl-5-fluoro-9-hydroxy-1-((2-hydroxyethyl)amino)-4-methyl-1,2,3,9,12,15-hexahydro-10H,13H-benzo[de]pyrano[3′,4′: 6,7]indolizino[1,2-b]quinoline-10,13-dione formate] was tested, and the EC50 was 3.7 nM.
